Assay [1] concerns the target BCL2 WT (Homo sapiens (Human), UniProt P10415). Description: TR-FRET competitive binding assay, BCL2 WT. The essentials:
(§1)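 Terbium-labelled N-terminal Halo-fusion BCL2 or BCLXL (E. coli), 0.5 nM, competed against fluorescein-labelled PUMA peptide (2 or 20 nM) for 2 h at 23° C in 50 mM Hepes pH 7.5, 150 mM NaCl, 5% DMSO. TR-FRET 520/495 nm ratio gave IC50 by four-parameter fit; Ki derived from IC50.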
In general terms: In TR-FRET formats the signal depends on donor and acceptor labels being close together.

In assay [2] the target is BCL2 G101V (Homo sapiens, UniProt P10415, G101V). The assay is described as follows: TR-FRET competitive binding assay, BCL2 G101V. Conditions: BCL2 G101V; Ki determined from IC50; read-out: TR_FRET EKI_Bcl2 G101V. The essentials: as §1
Assay [3] deals with BCL2 G101V. The assay is described as follows: TR-FRET competitive binding assay, BCL2 G101V. Also noted: species or system human. As to conditions: for TR_FRET EKI G101V/WT selectivty ratio: ratio Ki BCL2 G101V / Ki BCL2 WT. A digest of the protocol:
as §1

Assay [4] addresses BCL2 D103Y (Homo sapiens, UniProt P10415, D103Y). The assay is described as follows: TR-FRET competitive binding assay, BCL2 D103Y. As to conditions: Ki determined from IC50, read-out: TR_FRET EKI_Bcl2 D103Y. A digest of the protocol: as §1
Assay [5] deals with BCL2 F104I (Homo sapiens, UniProt P10415, F104I). The assay is described as follows: TR-FRET competitive binding assay, BCL2 F104I. As to conditions: Ki determined from IC50, read-out: TR_FRET EKI_Bcl2 F104I. As for the experimental part:
(§2) The relative binding potency of each compound was determined in a competitive binding assay using time resolved-fluorescence resonance energy transfer (TR-FRET). The method utilised a fluorescein labelled peptide derived from PUMA (5Flu-Ahx-[…]-NH2 wherein Ahx means 6-hexanoic acid monomer and the amino acid sequence is referred to as SEQ ID:01) which binds to a terbium labelled BCL2 or BCLXL protein. The degree of binding or corresponding compound inhibition can be quantified by the TR-FRET signal between the terbium donor and fluorescein acceptor.
(§3) The human BCL2_wild-type (also named BCL2_wt), BCL2_G101V mutant and BCLXL_wild-type were E. coli expressed as a N-terminal Halo-fusion proteins and singly labelled with Terbium on the Halo protein to afford the following amino acid sequences:
(§4) wherein the BCL2(1-207) sequence corresponds to UniProtKB® primary accession number P10415 and the BCLXL(2-196) sequence corresponds to UniProtKB® primary accession number Q07817-1.
(§5) The assay was performed in a 40 μL volume in white 384-standard well plates (Corning #3574). An 11-point serial dilution of each compound was prepared in DMSO and transferred directly to plate followed by addition of fluorescein labelled peptide and lastly protein. Final assay conditions were 0.5 nM BCL2_wt, BCL2_G101V, BCL2_D103Y, BCL2_F104I, BCL2_D111A or BCLXL_wt, 2 or 20 nM fluorescein labelled peptide, 50 mM Hepes pH 7.5, 150 mM NaCl, 0.5 mM TCEP (Tris(2-carboxyethyl)phosphine), 0.05% Tween 20, 5% DMSO. The mixture was incubated for 2 hours at 23° C.
(§6) TR-FRET measurements were performed on a Biotek Synergy Neo plate reader. TR-FRET was measured by excitation of the Terbium-donor at 340 nm and subsequent (delay time 100 μs) measurement of terbium and fluorescein emission at 495 nm and 520 nm, respectively, over a collection time of 300 μs. The TR-FRET signal was calculated as the emission-ratio at 520 nm over 495 nm.
(§7) The TR-FRET ratio readout for test compounds was normalized against 0% inhibition controls wells and 100% inhibition control wells. Test compound potency (IC50) was estimated by nonlinear regression using the sigmoidal dose-response (variable slope) using Xlfit 4 (IDBS, Guildford, Surrey, UK, model 205). Were the IC50 could not be determined the % inhibition at the highest tested concentration is given.
(§8) y=(A+((B−A)/(1+((C/x)^D))))
(§9) where y is the normalized TR-TRET ratio measurement for a given concentration of test compound, x is the concentration of test compound, A is the estimated efficacy (% inhibition) at infinite compound dilution, and B is the maximal efficacy (% inhibition). C is the IC50 value and D is the Hill slope coefficient.
(§10) The K1 values were determined from the IC50 values according to Cer et al, Nucleic Acids Res, 2009, July 1; 37 (WebServer issue): W441-W445.

The target in assay [6] is BCL2 D111A (Homo sapiens, UniProt P10415, D111A). Description: TR-FRET competitive binding assay, BCL2 D111A. As to conditions: Ki determined from IC50, read-out: TR_FRET EKI_Bcl2 D111A. As for the experimental part: as §2, §3, §4, §5, §6, §7, §8, §9, §10
Assay [7] addresses BCLXL WT (Homo sapiens (Human), UniProt Q07817). Description: TR-FRET competitive binding assay, BCLXL WT. As to conditions: for Ki: BCLXL WT, Ki determined from IC50, read-out: TR_FRET EKI BclxL; for TR_FRET EKI BCLxL/WT selectivty ratio: ratio Ki BCLxL / Ki BCL2 WT. A digest of the protocol: as §1
Assay [8] concerns KMS-12-PE Bcl-2 WT. Description: In vitro cytotoxicity CellTiter-Glo 48 h, KMS-12-PE Bcl-2 WT. Conditions: C50 = concentration needed to reach 50% of the cellular viability. The class given is cell-based. A digest of the protocol:
(§11)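 CTG luminescence read-out; C50 = concentration reaching 50% cellular viability. Cells: KMS-12-PE expressing Bcl-2 WT or G101V (lentiviral, TagRFP-sorted). 11-pt curve, 48 h, 37 °C/5% CO2.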

The test system of assay [9] is KMS-12-PE Bcl-2 G101V. Description: In vitro cytotoxicity CellTiter-Glo 48 h, KMS-12-PE Bcl-2 G101V. In kind it is cell-based. Conditions: for Ratio (G101V/WT): C50 KMS-12-PE Bcl-2 G101V over C50 KMS-12-PE Bcl-2 WT; for IC50: Homo sapiens, KMS-12-PE, 48 h, CellTiter-Glo, C50 = concentration needed to reach 50% of the cellular viability. The essentials: as §11
(Cellular ATP, detected with luciferase, serves as a proxy for viable cell number.)

[10] abbreviates: Ki determined from IC50, read-out: TR_FRET EKI_Bcl2 WT.

The structures appear in SMILES notation. Where two headings read alike, the source gives them in different places.

Sequence of BCLXL WT (Q07817 other isoform, or with tags, fused parts or gaps): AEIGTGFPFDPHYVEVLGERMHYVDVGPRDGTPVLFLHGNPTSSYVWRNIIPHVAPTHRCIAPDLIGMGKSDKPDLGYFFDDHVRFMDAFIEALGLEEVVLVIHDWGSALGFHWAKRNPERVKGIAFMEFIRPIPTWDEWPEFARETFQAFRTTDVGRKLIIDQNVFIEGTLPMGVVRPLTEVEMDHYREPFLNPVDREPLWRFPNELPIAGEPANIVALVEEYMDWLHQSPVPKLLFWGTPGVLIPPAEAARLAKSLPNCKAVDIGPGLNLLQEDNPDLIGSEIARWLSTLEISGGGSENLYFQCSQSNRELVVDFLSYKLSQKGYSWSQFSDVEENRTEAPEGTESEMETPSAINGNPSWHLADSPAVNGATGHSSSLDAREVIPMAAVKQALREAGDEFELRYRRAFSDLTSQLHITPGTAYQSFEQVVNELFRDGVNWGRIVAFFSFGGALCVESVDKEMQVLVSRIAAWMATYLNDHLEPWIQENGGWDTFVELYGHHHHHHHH

The IC50 is the concentration at which inhibition is half-maximal. Regarding `COc1ncc(N(C(=O)c2cc(-c3cc4c(cc3C(=O)N3Cc5ccccc5C[C@H]3C)CN(C(=O)Cc3ccc(OCCN5CCOCC5)cc3F)CC4)n(C)c2C)c2ccc(O)cc2)cc1F` [Example 111, 5-[2-(2-{2-fluoro-4-[2-(morpholin-4-yl)ethoxy]phenyl}acetyl)-7-{[(3R)-3-methyl-3,4-dihydro-1H-isoquinolin-2-yl]carbonyl}-3,4-dihydro-1H-isoquinolin-6-yl]-N-(5-fluoro-6-methoxypyridin-3-yl)-N-(4-hydroxyphenyl)-1,2-dimethylpyrrole-3-carboxamide], the Ki in [1] (setting [10]) was found to be 150 pM; in assay [2] it was 800 pM; in assay [4] it was 590 pM; in assay [5], 790 pM; in assay [6] it was 400 pM; in [7] it was 7200 pM. Besides, the “TR_FRET EKI G101V/WT selectivty ratio” value in [3] came out at 5.2. Further, in [7], the “TR_FRET EKI BCLxL/WT selectivty ratio” value worked out at 48.0. Moreover, the IC50 in assay [8] (Homo sapiens, KMS-12-PE) amounted to 0.0048 µM; in assay [9], 0.0392 µM. Moreover, the “Ratio (G101V/WT)” value in assay [9] stood at 8.18.
For the compound `Cc1c(N(C(=O)c2cc(-c3cc4c(cc3C(=O)N3Cc5ccccc5C[C@H]3CN3CCCC[C@H]3C)CN(C(=O)Cc3ccc(OCCN5CCOCC5)cc3F)CC4)n(C)c2C)c2ccc(O)cc2)cc(C#N)n1C` [Example 123, N-(5-cyano-1,2-dimethyl-1H-pyrrol-3-yl)-5-[2-(2-{2-fluoro-4-[2-(morpholin-4-yl)ethoxy]phenyl}acetyl)-7-[(3S)-3-{[(2R)-2-methylpiperidin-1-yl]methyl}-1,2,3,4-tetrahydroisoquinoline-2-carbonyl]-1,2,3,4-tetrahydroisoquinolin-6-yl]-N-(4-hydroxyphenyl)-1,2-dimethyl-1H-pyrrole-3-carboxamide], the Ki is 70 pM in assay [1] (setting [10]); 300 pM in [2]; 280 pM in [4]; 180 pM in assay [5]; 130 pM in assay [6]; 2600 pM in [7]. For the same compound, the “TR_FRET EKI G101V/WT selectivty ratio” value in [3] was 4.2. Moreover, the “TR_FRET EKI BCLxL/WT selectivty ratio” value in assay [7] is 35.1. Moreover, the half-maximal inhibitory concentration (IC50) in assay [8] (Homo sapiens, KMS-12-PE) was determined as 0.0038 µM; in assay [9], 0.0185 µM. Moreover, the “Ratio (G101V/WT)” value in assay [9] is listed as 4.82.
Take `Cc1c(N(C(=O)c2cc(-c3cc4c(cc3C(=O)N3Cc5ccccc5C[C@H]3C)CN(C(=O)Cc3ccc(OCCN5CCOCC5)cc3)CC4)n(C)c2C)c2ccccc2)cc(C#N)n1C` [Example 65, N-(5-cyano-1,2-dimethylpyrrol-3-yl)-1,2-dimethyl-5-(7-{[(3R)-3-methyl-3,4-dihydro-1H-isoquinolin-2-yl]carbonyl}-2-(2-{4-[2-(morpholin-4-yl)ethoxy]phenyl}acetyl)-3,4-dihydro-1H-isoquinolin-6-yl)-N-phenylpyrrole-3-carboxamide]: the Ki in assay [1] (setting [10]) came out at 80 pM; in [2] it was 700 pM; in assay [4], 800 pM; in assay [5] it was 1120 pM; in assay [6] it was 140 pM; in [7] it was 4100 pM. The “TR_FRET EKI G101V/WT selectivty ratio” value in assay [3] was 9.4. Also, the “TR_FRET EKI BCLxL/WT selectivty ratio” value in assay [7] was 52.6. The IC50 in assay [8] is 0.0028 µM; in assay [9] it was 0.0414 µM. The “Ratio (G101V/WT)” value in assay [9] is 15.
Regarding `Cc1c(C(=O)N(c2ccc(O)cc2)c2cnn(C(F)F)c2)cc(-c2cc3c(cc2C(=O)N2Cc4ccccc4C[C@H]2C)CN(C(=O)Cc2ccc(OCCN4CCOCC4)cc2)CC3)n1C` [Example 228, N-[1-(difluoromethyl)pyrazol-4-yl]-5-[2-[2-[4-(2-morpholinoethoxy)phenyl]acetyl]-7-[(3R)-3-methyl-3,4-dihydro-1H-isoquinoline-2-carbonyl]-3,4-dihydro-1H-isoquinolin-6-yl]-N-(4-hydroxyphenyl)-1,2-dimethyl-pyrrole-3-carboxamide], the Ki in assay [1] (Ki determined from IC50, read-out: TR_FRET EKI_Bcl2) amounted to 60 pM; in assay [2], 840 pM; in assay [4], 210 pM; in assay [5], 1600 pM; in assay [6], 200 pM; in [7], 14900 pM. Besides, the “TR_FRET EKI G101V/WT selectivty” value in [3] (ratio of Ki BCL2 G101V to BCL2 WT) is 14. In addition, the “TR_FRET EKI BCLxL/WT selectivty” value in [7] (ratio of Ki BCLxL to BCL2 WT) is 248.3. In addition, the IC50 was determined as 0.0146 µM in assay [8] (Homo sapiens, KMS-12-PE) and 0.161 µM in [9]. For the same compound, in assay [9], the “Ratio (G101V/WT)” value is listed as 11.0.
With `Cc1c(N(C(=O)c2cc(-c3cc4c(cc3C(=O)N3Cc5ccccc5C[C@H]3CN3CCCCC3)CN(C(=O)Cc3ccc(OCCN5CCOC(C)(C)C5)cc3)CC4)n(C)c2C)c2ccc(O)cc2)cc(C#N)n1C` [Example 121, N-(5-cyano-1,2-dimethyl-1H-pyrrol-3-yl)-5-[2-(2-{4-[2-(2,2-dimethylmorpholin-4-yl)ethoxy]phenyl}acetyl)-7-[(3S)-3-[(piperidin-1-yl)methyl]-1,2,3,4-tetrahydroisoquinoline-2-carbonyl]-1,2,3,4-tetrahydroisoquinolin-6-yl]-N-(4-hydroxyphenyl)-1,2-dimethyl-1H-pyrrole-3-carboxamide], the Ki in assay [1] (setting [10]) was determined as 160 pM; in [2], 500 pM; in assay [4] it was 340 pM; in assay [5] it was 560 pM; in [6], 230 pM; in assay [7], 6000 pM. The “TR_FRET EKI G101V/WT selectivty ratio” value in [3] was 3.2. Also, in [7], the “TR_FRET EKI BCLxL/WT selectivty ratio” value is given as 38.5. The IC50 was determined as 0.0076 µM in assay [8] (Homo sapiens, KMS-12-PE) and 0.0397 µM in assay [9]. Further, the “Ratio (G101V/WT)” value in [9] is 5.25.

Values taken from patent publication US20250179047A1, “5-[7-(3,4-DIHYDRO-1H-ISOQUINOLINE-2-CARBONYL)-1,2,3,4 TETRAHYDROISOQUINOLIN-6-YL]-1H-PYRROLE-3-CARBOXAMIDE DERIVATIVES, PHARMACEUTICAL COMPOSITIONS CONTAINING THEM AND THEIR USES AS PRO-APOPTOTIC AGENTS” (LES LABORATOIRES SERVIER, priority 2022, published 2025).
